Experimental data: paper PMC7725003, “Systematically Studying the Optimal Amino Acid Distribution Patterns of the Amphiphilic Structure by Using the Ultrashort Amphiphiles” (Frontiers in Microbiology, 2020)
Where no end group is shown, it is not given here.

Columns and labels:
E. coli K99 = conditions: for MIC: MHB, 24 h 37°C, 95% growth inhibition; for MBC: value in brackets, >99.9% of cells killed
Method: (§1) The antimicrobial activities of the peptides were measured using a method adapted from the National Committee for Clinical Laboratory Standards (NCCLS) with some modifications ([Chou et al., 2016]). The specific procedure for these assays has been previously described. In brief, the bacterial cells were grown to a mid-logarithmic phase and diluted in MHB to an ultimate concentration of 0.5–1 × 10^6 CFU mL^–1. Subsequently, the peptides were consecutively diluted in a 0.2% BSA solution and then added to a bacterial solution in a 96-well plate at identical volumes. After incubation for 24 h at 37°C, the MICs were determined to be the lowest peptide concentration that inhibited 95% of the bacterial growth by monitoring the absorbance at 492 nm using a microplate reader. Subsequently, 50 μL of each incubation mixture was further transferred to agar plates and incubated overnight. […] Every assay was reproduced more than 3 times.

E. coli K88 = conditions: for MIC: MHB, 24 h 37°C, 95% growth inhibition; for MBC: value in brackets, >99.9% of cells killed
Method: as §1

E. coli ATCC 25922 = test: Salt sensitivity assay (MIC); assay type: cell-based, Escherichia coli; conditions: for MIC, FeCl3: 4 μM FeCl3; for MIC, NH4Cl: 6 μM NH4Cl; for MIC, ZnCl2: 8 μM ZnCl2; for MIC, MgCl2: 1 mM MgCl2; for MIC, CaCl2: 2 mM CaCl2; for MIC, KCl: 4.5 mM KCl; for MIC, NaCl: 150 mM NaCl; for MIC, Control: no added salt, three independent assays
How it was run: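 Peptides diluted serially in 0.2% BSA solution were combined at identical volumes with mid-logarithmic E. coli ATCC 25922 in MHB (0.5–1 × 10^6 CFU mL^–1) in 96-well plates, with or without a physiological salt. Plates were incubated for 24 h at 37°C. MIC was the lowest concentration inhibiting 95% of growth, measured as absorbance at 492 nm on a microplate reader.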

B. subtilis 63501 = assay type: cell-based, Bacillus subtilis; conditions: 63501, 24 h
How it was run: (§2)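 MIC = lowest peptide concentration giving 95% growth inhibition (A492) after 24 h at 37°C in MHB, inoculum 0.5–1 × 10^6 CFU mL^–1. Peptides serially diluted in 0.2% BSA. MBC = lowest concentration killing >99.9% of cells on overnight agar plating.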

P. aeruginosa 27853 = assay type: cell-based, Pseudomonas aeruginosa; conditions: 27853, 24 h
How it was run: as §2

S. typhimurium 14028 = assay type: cell-based, Salmonella typhimurium; conditions: 14028, 24 h
How it was run: as §2

S. typhimurium 7731 = assay type: cell-based, Salmonella typhimurium; conditions: 7731, 24 h
How it was run: as §2

MRSA 43300 = assay type: cell-based, methicillin-resistant S. aureus; conditions: 43300, 24 h
How it was run: as §2

S. aureus 29213 [1] = test: Salt sensitivity assay (MIC); assay type: cell-based, Staphylococcus aureus; conditions: for MIC, FeCl3: 4 μM FeCl3; for MIC, NH4Cl: 6 μM NH4Cl; for MIC, ZnCl2: 8 μM ZnCl2; for MIC, MgCl2: 1 mM MgCl2; for MIC, CaCl2: 2 mM CaCl2; for MIC, KCl: 4.5 mM KCl
How it was run: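 Physiological salts (150 mM NaCl, 4.5 mM KCl, 6 μM NH4Cl, 8 μM ZnCl2, 1 mM MgCl2, 2mM CaCl2, 4 μM FeCl3) added to MHB. Bacteria at 0.5–1 × 10^6 CFU/mL exposed to serially diluted peptides for 24 h at 37°C. MIC read as lowest peptide concentration giving 95% growth inhibition by absorbance at 492 nm.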

E. faecalis 29212 = assay type: cell-based, Enterococcus faecalis; conditions: 29212, 24 h
How it was run: as §2

S. aureus 29213 [2] = assay type: cell-based, Staphylococcus aureus; conditions: 29213, 24 h
How it was run: as §2

S. aureus 25923 = assay type: cell-based, Staphylococcus aureus; conditions: 25923, 24 h
How it was run: as §2

Gram-positive bacteria [3] = conditions: geometric mean of MBCs, 7 Gram-positive strains (Table 2)
[4] = tested on: Listeria monocytogenes CGMCC 1.1075; assay type: cell-based; conditions: CGMCC 1.1075, 24 h
How it was run: as §2

Gram-negative bacteria [5] = conditions: geometric mean of MBCs, 9 Gram-negative strains (Table 2)
Gram-positive bacteria [6] = conditions: for GM MIC: geometric mean of MICs, 7 Gram-positive strains (Table 2); for TI, Gram-positive bacteria: therapeutic index TI = MHC/GM MIC
How it was run: (§3)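 MIC is the lowest peptide concentration giving 95% growth inhibition, read at 492 nm after 24 h incubation at 37°C. Peptides were serially diluted in 0.2% BSA and added to mid-logarithmic cells at 0.5–1 × 10^6 CFU mL^–1 in MHB, following a modified NCCLS method, with more than 3 repeats.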

Gram-negative bacteria [7] = conditions: for GM MIC: geometric mean of MICs, 9 Gram-negative strains (Table 2); for TI, Gram-negative bacteria: therapeutic index TI = MHC/GM MIC
How it was run: as §3

S. pullorum 7913 = assay type: cell-based, Salmonella pullorum; conditions: 7913, 24 h
How it was run: as §2

[8] = tested on: all of the tested bacterial strains; test: Geometric mean of MICs, all tested bacterial strains; assay type: cell-based; conditions: for GM, All: geometric mean of MICs across all tested strains; for TI, All: therapeutic index TI = MHC/GM MIC
How it was run: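 Per strain, MIC came from absorbance at 492 nm after 24 h at 37°C (≥95% inhibition), using mid-log inoculum of 0.5–1 × 10^6 CFU mL^–1 in MHB and peptide diluted in 0.2% BSA. MBC (>99.9% killed) came from overnight agar plating, and values are geometric means across strains.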

S. epidermidis 12228 = assay type: cell-based, Staphylococcus epidermidis; conditions: 12228, 24 h
How it was run: as §2

E. coli 25922 = assay type: cell-based, Escherichia coli; conditions: 25922, 24 h
How it was run: as §2

E. coli UB1005 = assay type: cell-based, Escherichia coli; conditions: UB1005, 24 h
How it was run: as §2

E. coli O78 = assay type: cell-based, Escherichia coli; conditions: O78, 24 h
How it was run: as §2

LLRLRRRLL-NH2 [L2]
MIC (E. coli K99): 8 µM
MBC (E. coli K99): 16 µM
MIC (E. coli K88): 16 µM
MBC (E. coli K88): 32 µM
MIC, FeCl3 (E. coli ATCC 25922): 8 µM
MIC, NH4Cl (E. coli ATCC 25922): 8 µM
MIC, ZnCl2 (E. coli ATCC 25922): 8 µM
MIC, MgCl2 (E. coli ATCC 25922): 16 µM
MIC, CaCl2 (E. coli ATCC 25922): 32 µM
MIC, KCl (E. coli ATCC 25922): 16 µM
MIC, NaCl (E. coli ATCC 25922): 32 µM
MIC, Control (E. coli ATCC 25922): 8 µM
MBC (B. subtilis 63501): 4 µM
MIC (B. subtilis 63501): 2 µM
MIC (P. aeruginosa 27853): > 64 µM
MBC (S. typhimurium 14028): 128 µM
MIC (S. typhimurium 14028): 64 µM
MBC (S. typhimurium 7731): 128 µM
MIC (S. typhimurium 7731): 64 µM
MBC (MRSA 43300): 64 µM
MIC (MRSA 43300): 32 µM
MIC, FeCl3 (S. aureus 29213 [1]): > 64 µM
MIC, NH4Cl (S. aureus 29213 [1]): > 64 µM
MIC, ZnCl2 (S. aureus 29213 [1]): > 64 µM
MIC, MgCl2 (S. aureus 29213 [1]): > 64 µM
MIC, CaCl2 (S. aureus 29213 [1]): > 64 µM
MIC, KCl (S. aureus 29213 [1]): > 64 µM
MIC, NaCl (S. aureus 29213 [1]; 150 mM NaCl): > 64 µM
MIC, Control (S. aureus 29213 [1]; no added salt, three independent assays): > 64 µM
MIC (E. faecalis 29212): > 64 µM
MBC (S. aureus 29213 [2]): 128 µM
MIC (S. aureus 29213 [2]): 64 µM
MIC (S. aureus 25923): > 64 µM
GM MBC (Gram-positive bacteria [3]): 70.66 µM
MIC [4]: >64 µM
GM MBC (Gram-negative bacteria [5]): 40.32 µM
GM MIC (Gram-positive bacteria [6]): 52.50 µM
TI, Gram-positive bacteria (Gram-positive bacteria [6]): 4.88
GM MIC (Gram-negative bacteria [7]): 21.77 µM
TI, Gram-negative bacteria (Gram-negative bacteria [7]): 11.76
MBC (S. pullorum 7913): 32 µM
MIC (S. pullorum 7913): 16 µM
GM, All [8]: 33.42 µM
TI, All [8]: 7.66
MIC (S. epidermidis 12228): > 64 µM
MBC (E. coli 25922): 16 µM
MIC (E. coli 25922): 8 µM
MBC (E. coli UB1005): 32 µM
MIC (E. coli UB1005): 16 µM
MBC (E. coli O78): 16 µM
MIC (E. coli O78): 8 µM

RRLLLRLRL-NH2 [L8]
MIC (E. coli K99): 16 µM
MBC (E. coli K99): 32 µM
MIC (E. coli K88): 4 µM
MBC (E. coli K88): 8 µM
MIC, FeCl3 (E. coli ATCC 25922): 16 µM
MIC, NH4Cl (E. coli ATCC 25922): 8 µM
MIC, ZnCl2 (E. coli ATCC 25922): 8 µM
MIC, MgCl2 (E. coli ATCC 25922): 32 µM
MIC, CaCl2 (E. coli ATCC 25922): > 64 µM
MIC, KCl (E. coli ATCC 25922): 32 µM
MIC, NaCl (E. coli ATCC 25922): 64 µM
MIC, Control (E. coli ATCC 25922): 16 µM
MBC (B. subtilis 63501): 8 µM
MIC (B. subtilis 63501): 4 µM
MBC (P. aeruginosa 27853): 128 µM
MIC (P. aeruginosa 27853): 64 µM
MBC (S. typhimurium 14028): 64 µM
MIC (S. typhimurium 14028): 32 µM
MBC (S. typhimurium 7731): 64 µM
MIC (S. typhimurium 7731): 32 µM
MBC (MRSA 43300): 64 µM
MIC (MRSA 43300): 32 µM
MIC, FeCl3 (S. aureus 29213 [1]): 32 µM
MIC, NH4Cl (S. aureus 29213 [1]): 32 µM
MIC, ZnCl2 (S. aureus 29213 [1]): 32 µM
MIC, MgCl2 (S. aureus 29213 [1]): 64 µM
MIC, CaCl2 (S. aureus 29213 [1]): > 64 µM
MIC, KCl (S. aureus 29213 [1]): 64 µM
MIC (E. faecalis 29212): > 64 µM
MBC (S. aureus 29213 [2]): 64 µM
MIC (S. aureus 29213 [2]): 32 µM
MBC (S. aureus 25923): 128 µM
MIC (S. aureus 25923): 64 µM
GM MBC (Gram-positive bacteria [3]): 43.07 µM
MBC [4]: 8 µM
MIC [4]: 4 µM
GM MBC (Gram-negative bacteria [5]): 32.00 µM
GM MIC (Gram-positive bacteria [6]): 23.78 µM
TI, Gram-positive bacteria (Gram-positive bacteria [6]): 10.77
GM MIC (Gram-negative bacteria [7]): 17.28 µM
TI, Gram-negative bacteria (Gram-negative bacteria [7]): 14.81
MBC (S. pullorum 7913): 16 µM
MIC (S. pullorum 7913): 8 µM
GM, All [8]: 19.87 µM
TI, All [8]: 12.88
MBC (S. epidermidis 12228): 64 µM
MIC (S. epidermidis 12228): 32 µM
MBC (E. coli 25922): 32 µM
MIC (E. coli 25922): 16 µM
MBC (E. coli UB1005): 64 µM
MIC (E. coli UB1005): 32 µM
MBC (E. coli O78): 16 µM
MIC (E. coli O78): 8 µM
